# From patent US9161989B2, “Cupredoxin derived transport agents and methods of use thereof” (priority 2004, dated 2015)
# Read-outs that look alike come from different tables or passages of the source.
# Tested on: UISO-MeI-2 cells
# Assay type: cell-based
Molecule,Effect on uptake of azurin in UISO-MeI-2 cells (20 pM),Effect on uptake of azurin in UISO-MeI-2 cells
carbonyl cyanide m-chlorophrnylhydrazone [CCCP],significantly reduced,
C=C1[C@@H](C)[C@H]2[C@H](Cc3ccccc3)NC(=O)[C@]23[C@H](OC(C)=O)/C=C/[C@@](C)(O)C(=O)[C@@H](C)C/C=C/[C@H]3[C@@H]1O [cytochalasin D],,significantly reduced
C[C@H]1CCC/C=C/[C@@H]2C[C@H](O)C[C@H]2[C@H](O)/C=C/C(=O)O1 [Brefeldin A],,no significant effect
